Laboratory results published in patent publication US9056865B2, “Pyridine-2-derivatives as smoothened receptor modulators” (Pfizer Inc., priority 2010, dated 2015).

Experiments:
[1] = test system: Gli-Luc/MEF cells; test: Gli-Luc/MEF assay; format: cell-based, mouse; conditions: Shh-stimulated luciferase, 48 hours
Outline: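 Mouse embryonic fibroblasts from Gli-Luc transgenic mice (luciferase under Gli response element) dosed with compounds (final […], 3-fold series), then stimulated with recombinant mouse Shh at final 2 μg/mL. After 48 h at 37 °C, luminescence read by Bright-Glo; IC50 from inhibition of Shh-induced signal.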

[2] = target: human Smo (Homo sapiens (Human), UniProt Q99835); test: Smo radioligand competition binding assay; conditions: for inhibition at 0.05 µM: read-out: Smo % inh. @ 0.05 μM
Outline: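 Membranes from HEK293 cells expressing surface human Smo 181-781 (40 μg protein/well) incubated 2 h at room temperature with test compound and tritiated Smo antagonist (3 nM), pH 7.5 Tris buffer; filtration and scintillation counting. Non-specific binding defined with 30 μM cold antagonist; IC50 from four-parameter sigmoidal fit.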

Chain of human Smo (Q99835 181-787): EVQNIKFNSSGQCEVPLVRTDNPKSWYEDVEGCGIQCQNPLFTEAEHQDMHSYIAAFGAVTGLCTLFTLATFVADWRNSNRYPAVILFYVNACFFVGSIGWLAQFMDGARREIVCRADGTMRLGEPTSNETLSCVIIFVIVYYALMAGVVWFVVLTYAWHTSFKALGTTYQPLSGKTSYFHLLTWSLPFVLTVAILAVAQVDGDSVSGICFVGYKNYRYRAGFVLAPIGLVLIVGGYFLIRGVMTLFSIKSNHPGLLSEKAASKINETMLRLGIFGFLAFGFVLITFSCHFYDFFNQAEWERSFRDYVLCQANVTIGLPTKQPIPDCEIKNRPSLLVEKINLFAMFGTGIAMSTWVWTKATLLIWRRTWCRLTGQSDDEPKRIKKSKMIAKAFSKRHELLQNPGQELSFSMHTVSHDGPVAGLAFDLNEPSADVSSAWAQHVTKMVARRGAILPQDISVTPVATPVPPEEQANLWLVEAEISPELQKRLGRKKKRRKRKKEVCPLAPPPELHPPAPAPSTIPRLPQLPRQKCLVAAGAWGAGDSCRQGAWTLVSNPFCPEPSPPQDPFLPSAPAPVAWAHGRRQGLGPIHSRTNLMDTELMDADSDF

Molecule	IC50 ([1]; Mus musculus, MEF)	IC50 [2]	inhibition at 0.05 µM ([2]; 0.05 μM test compound)	IC50 [1]	Smo % inh. @ 0.05 μM ([2]; 0.05 μM test compound)
COCC(=O)NC1CCN(c2cc(-c3ncc(C)cc3C)c(Cl)cn2)CC1 [Example A-135, N-[1-(5′-chloro-3,5-dimethyl-2,4′-bipyridin-2′-yl)piperidin-4-yl]-2-methoxyacetamide]	0.0076 µM	0.04 µM	94%		
COCCS(=O)(=O)N1CCN(c2ccc(Cl)c(-c3ccccn3)n2)CC1 [Example A-136, 3-chloro-6-{4-[(2-methoxyethyl)sulfonyl]piperazin-1-yl}-2,2′-bipyridine]	0.117 µM	0.328 µM	58.8%		
CS(=O)(=O)NC1CCN(c2ncc(Cl)c(-c3ccccn3)c2F)CC1 [Example A-138, N-(1-(5′-chloro-3′-fluoro-2,4′-bipyridin-2′-yl)piperidin-4-yl)methanesulfonamide]	0.0294 µM	0.0846 µM	80.5%		
Cc1cnc(-c2c(Cl)cnc(N3CCC(NC(=O)CCS(C)(=O)=O)CC3)c2F)c(C)c1 [Example A-139, N-(1-(5′-chloro-3′-fluoro-3,5-dimethyl-2,4′-bipyridin-2′-yl)piperidin-4-yl)-3-(methylsulfonyl)propanamide]	0.00196 µM	0.0178 µM	101%		
Cc1cnc(-c2nc(N3CCC(NC(=O)CO)CC3)ccc2Cl)c(C)c1 [Example A-140, N-[1-(3-chloro-3′,5′-dimethyl-2,2′-bipyridin-6-yl)piperidin-4-yl]-2-hydroxyacetamide]	0.0195 µM	0.0477 µM	92%		
Cc1cnc(-c2ccnc(N3CCN(C(=O)CCS(C)(=O)=O)CC3)c2)c(C)c1 [Example A-141, 1-[4-(3,5-dimethyl-2,4′-bipyridin-2′-yl)piperazin-1-yl]-3-(methylsulfonyl)propan-1-one]	0.00842 µM	0.0116 µM	96.3%		
Cc1cnc(-c2cc(N3CCN(C(=O)CCS(C)(=O)=O)CC3)ncc2F)c(C)c1 [Example A-142, 1-[4-(5′-fluoro-3,5-dimethyl-2,4′-bipyridin-2′-yl)piperazin-1-yl]-3-(methylsulfonyl)propan-1-one]	0.0166 µM	0.0204 µM	92.7%		
Cc1cnc(-c2ccnc(N3CCC(NS(C)(=O)=O)CC3)c2)c(C)c1 [Example A-143, N-[1-(3,5-dimethyl-2,4′-bipyridin-2′-yl)piperidin-4-yl]methanesulfonamide]	0.0104 µM	0.0122 µM	96.3%		
Cc1cc(F)cnc1-c1cc(N2CCC(NC(=O)CCS(C)(=O)=O)CC2)ncc1Cl [Example A-144, N-[1-(5′-chloro-5-fluoro-3-methyl-2,4′-bipyridin-2′-yl)piperidin-4-yl]-3-(methylsulfonyl)propanamide]	0.0166 µM	0.0298 µM	91.3%		
Cc1cc(F)cnc1-c1cc(N2CCC(NC(=O)CN(C)C)CC2)ncc1Cl [Example A-145, N-[1-(5′-chloro-5-fluoro-3-methyl-2,4′-bipyridin-2′-yl)piperidin-4-yl]-N^2,N^2-dimethylglycinamide]	0.0113 µM	0.0662 µM	88.9%		
Cc1cc(F)cnc1-c1cc(N2CCC(NC(=O)CC(C)(C)O)CC2)ncc1Cl [Example A-146, N-[1-(5′-chloro-5-fluoro-3-methyl-2,4′-bipyridin-2′-yl)piperidin-4-yl]-3-hydroxy-3-methylbutanamide]	0.0207 µM	0.0522 µM	87.4%		
Cc1ccc(-c2nc(N3CCN(C(=O)CCS(C)(=O)=O)CC3)ccc2Cl)nc1 [Example A-147, 1-[4-(3-chloro-5′-methyl-2,2′-bipyridin-6-yl)piperazin-1-yl]-3-(methylsulfonyl)propan-1-one]	0.0144 µM		94.7%		
Cc1cc(F)cnc1-c1cc(N2CCC(NS(=O)(=O)CCO)CC2)ncc1Cl [Example A-149, N-[1-(5′-chloro-5-fluoro-3-methyl-2,4′-bipyridin-2′-yl)piperidin-4-yl]-2-hydroxyethanesulfonamide]	0.0101 µM	0.0207 µM	90.6%		
Cc1cc(F)cnc1-c1cc(N2CCN(S(=O)(=O)CCO)CC2)ncc1Cl [Example A-150, 2-{[4-(5′-chloro-5-fluoro-3-methyl-2,4′-bipyridin-2′-yl)piperazin-1-yl]sulfonyl}ethanol]	0.0295 µM	0.0809 µM	76.9%		
Cc1cc(F)cnc1-c1cc(N2CCN(C(=O)CCS(C)(=O)=O)CC2)ncc1Cl [Example A-151, 1-[4-(5′-chloro-5-fluoro-3-methyl-2,4′-bipyridin-2′-yl)piperazin-1-yl]-3-(methylsulfonyl)propan-1-one]	0.00876 µM		101%		
Cc1cc(F)cnc1-c1cc(N2CCN(S(=O)(=O)CC(C)(C)O)CC2)ncc1Cl [Example A-152, 1-{[4-(5′-chloro-5-fluoro-3-methyl-2,4′-bipyridin-2′-yl)piperazin-1-yl]sulfonyl}-2-methylpropan-2-ol]	0.0112 µM		95.9%		
Cc1cc(F)cnc1-c1cc(N2CCC(NS(=O)(=O)CC(C)(C)O)CC2)ncc1Cl [Example A-153, N-[1-(5′-chloro-5-fluoro-3-methyl-2,4′-bipyridin-2′-yl)piperidin-4-yl]-2-hydroxy-2-methylpropane-1-sulfonamide]	0.00471 µM	0.0106 µM	96.4%		
Cc1cc(F)cnc1-c1nc(N2CCC(NS(C)(=O)=O)CC2)ccc1Cl [Example A-154, N-[1-(3-chloro-5′-fluoro-3′-methyl-2,2′-bipyridin-6-yl)piperidin-4-yl]methanesulfonamide]	0.0395 µM	0.0292 µM	94.3%		
COCCS(=O)(=O)N1CCN(c2cc(-c3ncc(C)cc3C)ccn2)CC1 [Example A-155, 2′-{4-[(2-methoxyethyl)sulfonyl]piperazin-1-yl}-3,5-dimethyl-2,4′-bipyridine]	0.045 µM	0.097 µM	77.1%		
Cc1cnc(-c2ccnc(N3CCN(C(=O)CN4C[C@@H](C)O[C@@H](C)C4)CC3)c2)c(C)c1 [Example A-156, 1-[4-(3,5-dimethyl-2,4′-bipyridin-2′-yl)piperazin-1-yl]-2-[(2R,6S)-2,6-dimethylmorpholin-4-yl]ethanone]	0.00657 µM	0.0121 µM	102%		
Cc1cnc(-c2ccnc(N3CCN(C(=O)CN4CCOCC4)CC3)c2)c(C)c1 [Example A-157, 1-[4-(3,5-dimethyl-2,4′-bipyridin-2′-yl)piperazin-1-yl]-2-(morpholin-4-yl)ethanone]	0.00358 µM	0.0148 µM	101%		
N-[(3-endo)-8-(5′-chloro-3-methyl-2,4′-bipyridin-2′-yl)-8-azabicyclo[3.2.1]oct-3-yl]methanesulfonamide [Example A-124]		0.1 µM		0.0253 µM	79.9%
